Starred links: 1 amine or outer side, 2 acyl side, 3 side chain; linkers in the order of their positions; H or OH if unused. Residues, ends and D or L forms follow the SMILES beside them. *: point of attachment. AMC = Cc1cc(=O)oc2cc(N*)ccc12; Suc = O=C(CCC(=O)[*:2])[*:1]; Tos = Cc1ccc(S(=O)(=O)*)cc1; Cbz = O=C(OCc1ccccc1)*; Boc = CC(C)(C)OC(=O)*; Bz = O=C(c1ccccc1)*
Key:
[1] = test system: IgG cleaving activity of the E/S products from adult flukes; assay: Inhibition of IgG cleaving activity of adult fluke E/S products; assay type: biochemical, Fasciola hepatica; settings: final concentration of 50 μM
Protocol: (§1) As IgG is involved in antibody-dependent cellular cytotoxicity against helminth parasites and since adult fluke Cathepsin-L1 cleaves mouse IgG2a [see above], the E/S products from NEJ, 3 week-old, 5 week-old and adult flukes were tested for antibody cleaving activity. E/S products from all F. hepatica stages examined were capable of cleaving the purified IgG at the hinge region of the heavy chain and thereby releasing the Fc portion from the antibody binding regions.

[2] = test system: IgG cleaving activity of the E/S products from NEJ flukes; assay: Inhibition of IgG cleaving activity of NEJ E/S products; assay type: biochemical, Fasciola hepatica; settings: final concentration of 50 μM
Protocol: as §1

[3] = test system: E/S products from mature F. hepatica; assay: Specific activity against fluorogenic substrates by E/S products, adult flukes; assay type: biochemical, Fasciola hepatica; settings: E/S products of adult flukes; means of duplicate results
Protocol: (§2) Mature flukes were removed from the bile ducts of bovine livers obtained at an abbattoir. Immature parasites were obtained from the liver of male Wistar rats three and five weeks after infection with 20 metacercariae.
(§3) Newly excysted juvenile (NEJ), 3 week-old, 5 week-old and mature F. hepatica were maintained in vitro over a period of 3 days. The culture medium, removed daily, was then assayed for Cathepsin L-like activity using the fluorogenic substrate Z-phe-arg-AMC. Cathepsin L-like activity was present in the E/S products from all stages examined. Whilst the Cathepsin L-like activity increased on a daily basis in the NEJ E/S products, indicating an increase in its secretion with time, the activity of this proteinase in the EIS of all other stages decreased over the same time period. The proteinase activity in the E/S of each liver fluke stage was compared using three arginine-containing fluorogenic peptide substrates. These substrates were chosen on the basis of their affinity for lysosomal cathepsin enzymes; cathepsin L (Z-phe-arg-AMC), cathepsin B (Z-arg-arg-AMC) and cathepsin H (Z-arg-AMC). Significant activity was only detected using the Z-phe-arg-AMC substrate and similar results were obtained for all liver fluke stages examined (Table 2 below).

[4] = test system: F. hepatica cathepsin L1; assay: Enzyme kinetic studies, cathepsin L1; assay type: biochemical, Fasciola hepatica; settings: 0.1M glycine pH 7.0, 37° C.
Protocol: (§4) The kinetic constants of F. hepatica cathepsins L1 and L2 enzymes were determined for 11 different substrates: Z-Phe-Arg-AMC, Bz-Phe-Val-Arg-AMC, Suc-Leu-Leu-Val-Tyr-AMC, H-Leu-Val-Tyr-AMC, Tos-Gly-Pro-Lys-AMC, Tos-Gly-Pro-Arg-AMC, Boc-Val-Pro-Arg-AMC, Z-Arg-Arg-AMC, Z-Arg-AMC, Suc-Ala-Phe-Lys-AMC and Boc-Val-Leu-Lys-AMC. One mg of fluorogenic substrate was dissolved in 100 μl of dimethyl formamide. This stock solution was diluted in 0.1M glycine pH 7.0 to achieve the desired concentration of substrate. Each substrate concentration was in triplicate and the final assay volume was 1.0 ml. Included in the 1 ml aliquot was 20 μl of enzyme and 50 μl of 10 mM dithiothreitol. The samples were incubated at 37° C. for 30 min before stopping the reaction with the addition of 200 μl of 1.7 M acetic acid. The samples were assayed for released 7-amino-methyl-coumarin as above. The kinetic constants Vmax and Km were obtained by non-linear regression according to the method of Barrett et al (Biochem J. 201, p.189-198) except that 20 μl of cathepsin L2 was incubated with 20 μl of 1.0 μM-0.1 μM E-64 in a final volume of 80 μl 0.1M glycine pH 7.0 for 30 mins at 37° C. Twenty μl of 1/10 cathepsin L1 was incubated with 20 μl of 5 μM-0.5 μM E-64 in a final volume of 80 μl 0.1M glycine pH 7.0 for 30 min. at 37° C. All of the incubated sample was assayed for the fluorogenic substrate Z-Phe-Arg-AMC as above.

[5] = test system: E/S products from 5 week-old F. hepatica; assay: Specific activity against fluorogenic substrates by E/S products, 5 week-old flukes; assay type: biochemical, Fasciola hepatica; settings: E/S products of 5 week-old flukes; means of duplicate results
Protocol: as §2, §3

[6] = test system: F. hepatica cathepsin L2; assay: Enzyme kinetic studies, cathepsin L2; assay type: biochemical, Fasciola hepatica; settings: 0.1M glycine pH 7.0, 37° C.
Protocol: as §4

[7] = test system: E/S products from newly excysted juvenile (NEJ) F. hepatica; assay: Specific activity against fluorogenic substrates by E/S products, NEJ; assay type: biochemical, Fasciola hepatica; settings: E/S products of NEJ; means of duplicate results
Protocol: F. hepatica metacercariae (Pfizer strain) encysted on cellophane were removed with a Pasteur pipette into 2% sodium hypochlorite, vortexed and incubated for 30 minutes at 37° C. This procedure removes the outer cyst of the metacercariae. The metacercariae, now only with the inner transparent cyst, were placed into microtitre wells with an automatic pipette using a stereomicroscope and washed in distilled water. They were then incubated in a medium prepared by mixing equal volumes of 0.05M HCl with a solution containing 1% sodium bicarbonate, 0.8% NaCl and 0.2% sodium taurocholate. After 3 hours at 37° C. 70-80% of the flukes were excysted and actively moving. The excysted juveniles were separated from the inner cysts using a 20 μl automatic pipette under a stereomicroscope.
as §3

[8] = test system: E/S products from 3 week-old F. hepatica; assay: Specific activity against fluorogenic substrates by E/S products, 3 week-old flukes; assay type: biochemical, Fasciola hepatica; settings: E/S products of 3 week-old flukes; means of duplicate results
Protocol: as §2, §3

[9] = test system: antibody-mediated attachment of eosinophils to NEJ; assay: Eosinophil adherence to NEJ in vitro assay; assay type: cell-based, rat
Protocol: Twenty newly excysted juvenile F. hepatica were dispensed into 100 μl of rat eosinophil-rich suspension in microtitre wells. According to the experiment either 100 μl aliquots of immune serum or control serum were added with or without E/S products or purified Cathepsin L1. The cysteine proteinase inhibitor leupeptin was added in some experiments at a final concentration of 5 μg/ml. All dilutions were made in Roswell Park Memorial Institute 1640 with 4% heat inactivated fetal calf serum. At the end of the experiment juvenile flukes were carefully transferred to a microscope slide and examined microscopically at 40× and 100× magnifications. Individual flukes were examined and the number of bound eosinophils counted. Those NEJ with more than 20 cells attached were considered positive.
When rat eosinophil-rich cell populations were added to NEJ in the presence of immune rat serum (IRS obtained from female Wistar rats orally infected with 30 F. hepatica metacercariae; blood was taken after 5 weeks of infection; the sera obtained were pooled, aliquoted and stored at −20° C. until required; control serum was collected from uninfected rats), cell adherence was consistently high (>90% positive NEJ after 2 hours, FIG. 4, panel A; the scale along the base of the Figure represents percentage of positive NEJ as defined above; the 5 bars represent counts at 2 hour intervals). […]

[10] = test system: NEJ; design: species or system Fasciola hepatica; settings: added to NEJ in culture; data not shown

C[C@H](NC(=O)[C@H](Cc1ccccc1)NC(=O)OCc1ccccc1)C(=O)C=[N+]=[N-] [Z-phe-ala-CHN2]
inhibition of IgG cleaving activity [1]: completely inhibited | inhibition of IgG cleaving activity [2]: completely inhibited

Cc1cc(=O)oc2cc(NC(=O)[C@H](CCCN=C(N)N)NC(=O)[C@H](CCCN=C(N)N)NC(=O)OCc3ccccc3)ccc12 [Z-Arg-Arg-AMC] (Cbz-Arg-Arg-{AMC})
Specific activity against fluorogenic substrates, Adults [3]: 21 μmol AMC/min/Mg | Kcat [4]: 0.002 s⁻¹ | Km [4]: 65.6 µM | Specific activity against fluorogenic substrates, 5 weeks [5]: 2 μmol AMC/min/Mg | Kcat [6]: 0.02 s⁻¹ | Km [6]: 9.07 µM | Specific activity against fluorogenic substrates, NEJ [7]: 0 μmol AMC/min/Mg | Specific activity against fluorogenic substrates, 3 weeks [8]: 0 μmol AMC/min/Mg

Cc1cc(=O)oc2cc(NC(=O)[C@H](CCCN=C(N)N)NC(=O)OCc3ccccc3)ccc12 [Z-Arg-AMC]
Specific activity against fluorogenic substrates, Adults [3]: 63 μmol AMC/min/Mg | Kcat [4]: 0.04 s⁻¹ | Km [4]: 20.4 µM | Specific activity against fluorogenic substrates, 5 weeks [5]: 5 μmol AMC/min/Mg | Kcat [6]: 0.09 s⁻¹ | Km [6]: 14.1 µM | Specific activity against fluorogenic substrates, NEJ [7]: 1 μmol AMC/min/Mg | Specific activity against fluorogenic substrates, 3 weeks [8]: 3 μmol AMC/min/Mg

Cc1ccc(S(=O)(=O)NCC(=O)N2CCC[C@H]2C(=O)N[C@@H](CCCCN)C(=O)Nc2ccc3c(C)cc(=O)oc3c2)cc1 [Tos-Gly-Pro-Lys-AMC] (Tos-Gly-Pro-Lys-{AMC})
Kcat [4]: 0.03 s⁻¹ | Km [4]: 107 µM | Kcat [6]: 1.37 s⁻¹ | Km [6]: 35.5 µM

Cc1cc(=O)oc2cc(NC(=O)[C@H](Cc3ccc(O)cc3)NC(=O)[C@@H](NC(=O)[C@H](CC(C)C)NC(=O)[C@H](CC(C)C)NC(=O)CCC(=O)O)C(C)C)ccc12 [Suc-Leu-Leu-Val-Tyr-AMC] (Suc-LLVY-{AMC})
Kcat [4]: 0.01 s⁻¹ | Km [4]: 38.5 µM | Kcat [6]: 0.08 s⁻¹ | Km [6]: 23.3 µM

Cc1cc(=O)oc2cc(NC(=O)[C@H](CCCNC(=N)N)NC(=O)[C@H](Cc3ccccc3)NC(=O)OCc3ccccc3)ccc12 [Z-Phe-Arg-AMC, benzyloxycarbonyl-L-phenylalanyl-L-arginyl-7-amido-4-methyl coumarin] (Cbz-Phe-Arg-{AMC})
Specific activity against fluorogenic substrates, Adults [3]: 1254 μmol AMC/min/Mg | Kcat [4]: 1.08 s⁻¹ | Km [4]: 14.7 µM | Specific activity against fluorogenic substrates, 5 weeks [5]: 90 μmol AMC/min/Mg | Kcat [6]: 0.56 s⁻¹ | Km [6]: 3.76 µM | Specific activity against fluorogenic substrates, NEJ [7]: 25 μmol AMC/min/Mg | Specific activity against fluorogenic substrates, 3 weeks [8]: 29 μmol AMC/min/Mg

Cc1ccc(S(=O)(=O)NCC(=O)N2CCC[C@H]2C(=O)N[C@@H](CCCNC(=N)N)C(=O)Nc2ccc3c(C)cc(=O)oc3c2)cc1 [Tos-Gly-Pro-Arg-AMC] (Tos-Gly-Pro-Arg-{AMC})
Kcat [4]: 0.03 s⁻¹ | Km [4]: 26 µM | Kcat [6]: 1.93 s⁻¹ | Km [6]: 17.1 µM

Cc1cc(=O)oc2cc(NC(=O)[C@H](CCCN=C(N)N)NC(=O)[C@@H](NC(=O)[C@H](Cc3ccccc3)NC(=O)c3ccccc3)C(C)C)ccc12 [Bz-Phe-Val-Arg-AMC] (Bz-Phe-Val-Arg-{AMC})
Kcat [4]: 0.03 s⁻¹ | Km [4]: 9.25 µM | Kcat [6]: 0.06 s⁻¹ | Km [6]: 1.2 µM

Cc1cc(=O)oc2cc(NC(=O)[C@H](Cc3ccc(O)cc3)NC(=O)[C@@H](NC(=O)[C@@H](N)CC(C)C)C(C)C)ccc12 [H-Leu-Val-Tyr-AMC] (H-Leu-Val-Tyr-{AMC})
Kcat [4]: 0.02 s⁻¹ | Km [4]: 5.4 µM | Kcat [6]: 0.21 s⁻¹ | Km [6]: 3.75 µM

CC(=O)N[C@@H](CC(C)C)C(=O)N[C@@H](CC(C)C)C(=O)N[C@H](C=O)CCCNC(=N)N [leupeptin]
effect on action of E/S products and Cathepsin L1 on eosinophil attachment ([9]; 5 μg/ml, with immune serum and NEJ or mature fluke E/S products or purified Cathepsin L1): inhibits the effect of the E/S products and Cathepsin L1 | rate at which eosinophils are lost from the NEJ surface ([9]; in the presence of immune serum, FIG. 4 panel I): slightly reduces | viability of NEJ [10]: did not affect their viability

Cc1cc(=O)oc2cc(NC(=O)[C@H](CCCCN)NC(=O)[C@H](CC(C)C)NC(=O)[C@@H](NC(=O)OC(C)(C)C)C(C)C)ccc12 [Boc-Val-Leu-Lys-AMC] (Boc-Val-Leu-Lys-{AMC})
Kcat [4]: 7.90 s⁻¹ | Km [4]: 34.7 µM | Kcat [6]: 3.75 s⁻¹ | Km [6]: 7.34 µM

Cc1cc(=O)oc2cc(NC(=O)[C@H](CCCCN)NC(=O)[C@H](Cc3ccccc3)NC(=O)[C@H](C)NC(=O)CCC(=O)O)ccc12 [Suc-Ala-Phe-Lys-AMC] (Suc-Ala-Phe-Lys-{AMC})
Kcat [4]: 0.05 s⁻¹ | Km [4]: 65.3 µM | Kcat [6]: 0.14 s⁻¹ | Km [6]: 41.1 µM

Cc1cc(=O)oc2cc(NC(=O)[C@H](CCCN=C(N)N)NC(=O)[C@@H]3CCCN3C(=O)[C@@H](NC(=O)OC(C)(C)C)C(C)C)ccc12 [Boc-Val-Pro-Arg-AMC] (Boc-Val-Pro-Arg-{AMC})
Kcat [4]: 0.02 s⁻¹ | Km [4]: 43.6 µM | Kcat [6]: 1.19 s⁻¹ | Km [6]: 24.8 µM
